Article PMC9066185 (RSC Advances, 2019)

Target: xanthine oxidase from cow's milk (XO) (Bos taurus, UniProt P80457)
Assay: uric acid formation at […] nm
Type: biochemical

xanthine oxidase from cow's milk (XO), sequence (P80457 2-1332): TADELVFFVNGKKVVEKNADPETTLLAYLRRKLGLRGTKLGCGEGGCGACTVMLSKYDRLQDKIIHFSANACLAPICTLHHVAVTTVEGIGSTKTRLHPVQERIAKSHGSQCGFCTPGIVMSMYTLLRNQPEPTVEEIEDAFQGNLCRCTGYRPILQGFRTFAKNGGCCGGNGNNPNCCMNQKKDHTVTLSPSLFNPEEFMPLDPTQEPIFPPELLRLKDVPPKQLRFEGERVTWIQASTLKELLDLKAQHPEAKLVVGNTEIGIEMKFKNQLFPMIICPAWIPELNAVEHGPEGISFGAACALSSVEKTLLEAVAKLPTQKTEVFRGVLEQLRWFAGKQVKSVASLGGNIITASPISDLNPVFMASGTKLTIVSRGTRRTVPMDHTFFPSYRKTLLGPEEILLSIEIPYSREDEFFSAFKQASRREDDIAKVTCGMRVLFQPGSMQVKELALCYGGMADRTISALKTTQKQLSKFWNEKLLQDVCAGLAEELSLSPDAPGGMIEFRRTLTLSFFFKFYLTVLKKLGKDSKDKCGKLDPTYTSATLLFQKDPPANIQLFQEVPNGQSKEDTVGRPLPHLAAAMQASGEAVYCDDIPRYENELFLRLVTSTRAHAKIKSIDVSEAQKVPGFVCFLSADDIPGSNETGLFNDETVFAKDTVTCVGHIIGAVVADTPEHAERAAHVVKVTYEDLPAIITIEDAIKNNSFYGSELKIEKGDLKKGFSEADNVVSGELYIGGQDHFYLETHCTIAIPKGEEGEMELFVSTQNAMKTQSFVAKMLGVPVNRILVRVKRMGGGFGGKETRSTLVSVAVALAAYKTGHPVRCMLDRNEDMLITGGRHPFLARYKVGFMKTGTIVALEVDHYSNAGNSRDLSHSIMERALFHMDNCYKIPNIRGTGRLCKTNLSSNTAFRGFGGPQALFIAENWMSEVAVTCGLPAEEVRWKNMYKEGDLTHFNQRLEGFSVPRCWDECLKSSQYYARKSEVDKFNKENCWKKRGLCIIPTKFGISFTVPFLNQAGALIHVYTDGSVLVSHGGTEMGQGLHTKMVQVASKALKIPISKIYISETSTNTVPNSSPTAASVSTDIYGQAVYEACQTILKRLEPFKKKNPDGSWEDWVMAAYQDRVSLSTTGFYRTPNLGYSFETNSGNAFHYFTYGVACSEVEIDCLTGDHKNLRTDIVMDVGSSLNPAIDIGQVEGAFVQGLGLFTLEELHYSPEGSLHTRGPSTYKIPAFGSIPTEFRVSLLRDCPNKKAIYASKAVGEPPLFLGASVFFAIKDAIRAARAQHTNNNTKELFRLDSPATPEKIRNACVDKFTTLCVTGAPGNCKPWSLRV

IC50: 92.5 µM
Structure (SMILES): Oc1cc(O)c2c(c1)O[C@H](c1ccc(O)c(O)c1)[C@H](O)[C@H]2c1c(O)cc(O)c2c1O[C@H](c1ccc(O)c(O)c1)[C@@H](O)C2 [procyanidin B1, (−)-epicatechin-(4β,8)-(+)-catechin]
